Counter-ions that a name gives are not always drawn.
Assays:
Format in all cases: biochemical
[1] = target: T1, recombinant human VAP-1 (Homo sapiens, UniProt Q16853); assay: Activity on recombinant human VAP-1, HRP-coupled Amplex Red hydrogen peroxide assay, benzylamine substrate; details: 30 min incubation at 37° C., 1 mM benzylamine, read-out: Inhibitory Activity (IC50, nM) human VAP-1
T1 construct: purchased R&D systems
T1 sequence (Q16853 1-763): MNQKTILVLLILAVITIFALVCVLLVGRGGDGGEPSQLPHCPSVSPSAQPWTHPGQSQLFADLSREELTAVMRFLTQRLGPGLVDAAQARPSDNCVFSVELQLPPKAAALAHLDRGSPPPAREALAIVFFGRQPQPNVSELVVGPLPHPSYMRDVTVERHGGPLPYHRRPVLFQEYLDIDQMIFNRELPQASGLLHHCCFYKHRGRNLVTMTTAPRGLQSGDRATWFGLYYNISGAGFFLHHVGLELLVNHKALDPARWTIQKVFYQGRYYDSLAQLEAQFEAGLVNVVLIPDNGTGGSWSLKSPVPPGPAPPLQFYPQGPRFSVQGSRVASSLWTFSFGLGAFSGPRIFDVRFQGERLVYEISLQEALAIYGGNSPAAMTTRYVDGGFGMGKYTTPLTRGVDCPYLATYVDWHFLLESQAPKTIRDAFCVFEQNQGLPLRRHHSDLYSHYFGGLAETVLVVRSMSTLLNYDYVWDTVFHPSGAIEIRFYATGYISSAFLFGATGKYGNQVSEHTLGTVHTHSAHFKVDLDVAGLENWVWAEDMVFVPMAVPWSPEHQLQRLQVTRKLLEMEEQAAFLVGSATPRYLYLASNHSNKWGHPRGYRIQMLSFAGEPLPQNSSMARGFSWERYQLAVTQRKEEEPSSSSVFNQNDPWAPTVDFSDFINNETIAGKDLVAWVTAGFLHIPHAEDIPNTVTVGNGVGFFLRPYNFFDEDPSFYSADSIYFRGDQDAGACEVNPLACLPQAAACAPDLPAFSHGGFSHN
Method: (§1) The compounds according to the present technology were evaluated in terms of activity on recombinant human VAP-1 (R&D systems) by measuring the level of hydrogen peroxide in horseradish peroxidase (HRP)-coupled reaction using Amplex Red Hydrogen Peroxide Assay Kit (Molecular Probes, Invitrogen, USA). The experiment was carried out at room temperature using benzylamine as a substrate. In the HRP-coupled reaction, hydrogen peroxide oxidation of 10-acetyl-3,7-dihydroxyphenoxazine (Amplex Red reagent) produces resorufin, which is a highly fluorescent compound. Briefly, the test compound was dissolved in dimethyl sulfoxide (DMSO) at a concentration of 20 mM. The dose-response assessment was made by 1:3 serial dilution in DMSO, thereby creating a 8 point curve. The concentration of the upper part was controlled according to the efficacy of the compounds, followed by dilution with a reaction buffer solution to obtain a final DMSO concentration of less than 1%. To each well of a 96 black well plate, human VAP-1 purified in 50 mM sodium phosphate buffer solution (pH7.4) was added. The test compounds dissolved in DMSO were incubated with the human VAP-1 enzymes at 37° C. for 30 minutes. After 30-minute incubation, each well was added with a reaction mixture containing 200 uM Amplex Red reagent prepared from 50 mM sodium phosphate buffer solution (pH 7.4), 1 mM benzylamine, and 1 U/mL HRP. Fluorescence intensity was measured at several time points during 1-2 hours using a microplate reader (Flexstation3, Molecular Devices) under the wavelength condition exciting at 544 nm and reading the emission at 590 nm. The inhibitory effect of the compounds was measured as a decrease (%) in the signal rate as compared to the control group without any inhibitor (only diluted DMSO). Data was fixed to a logistic model with four variables and IC50 value was calculated using GraphPad Prism program.

[2] = target: T2, recombinant human MAO-A (monoamine oxidase-A) (Homo sapiens, UniProt P21397); assay: Activity on recombinant human MAO-A, method similar to VAP-1 assay, 0.5 mM tyramine substrate; details: read-out: Inhibitory Activity (IC50, nM) MAO-A
T2 construct: purchased Sigma-Aldrich
T2 sequence (P21397 1-527): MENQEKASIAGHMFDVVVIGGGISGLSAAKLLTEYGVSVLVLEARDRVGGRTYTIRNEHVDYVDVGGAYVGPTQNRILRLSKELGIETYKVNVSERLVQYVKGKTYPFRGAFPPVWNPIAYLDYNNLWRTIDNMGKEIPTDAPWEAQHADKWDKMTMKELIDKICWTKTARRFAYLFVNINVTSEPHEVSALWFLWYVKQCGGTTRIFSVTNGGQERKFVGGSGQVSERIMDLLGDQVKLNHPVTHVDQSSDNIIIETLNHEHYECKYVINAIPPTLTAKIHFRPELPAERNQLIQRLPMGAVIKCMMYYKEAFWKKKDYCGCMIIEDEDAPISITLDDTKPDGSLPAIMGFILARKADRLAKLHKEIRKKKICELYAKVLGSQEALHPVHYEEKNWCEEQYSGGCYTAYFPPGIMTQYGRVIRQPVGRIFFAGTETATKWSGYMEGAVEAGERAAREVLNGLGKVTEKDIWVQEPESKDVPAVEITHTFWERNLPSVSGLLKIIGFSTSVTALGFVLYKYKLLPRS
Method: as §1
(§2) In addition, the compounds according to the present technology were evaluated in terms of activity on a recombinant human MAO-A (monoamine oxidase-A, Sigma-Aldrich) and a recombinant human MAO-B(monoamine oxidase-B, Sigma-Aldrich) by using as substrates, 0.5 mM tyramine and 1 mM benzylamine, respectively, with a method similar to the activity evaluation method for recombinant human VAP-1. The compounds according to the present technology were also evaluated in terms of activity on a recombinant human DAO (diamine oxidase, R&D systems) by using as a substrate 1 mM putrescine with a method similar to the activity evaluation method for recombinant human VAP-1.

[3] = target: T3, recombinant human MAO-B (monoamine oxidase-B) (Homo sapiens, UniProt P27338); assay: Activity on recombinant human MAO-B, method similar to VAP-1 assay, 1 mM benzylamine substrate; details: read-out: Inhibitory Activity (IC50, nM) MAO-B
T3 construct: purchased Sigma-Aldrich
T3 sequence (P27338 1-520): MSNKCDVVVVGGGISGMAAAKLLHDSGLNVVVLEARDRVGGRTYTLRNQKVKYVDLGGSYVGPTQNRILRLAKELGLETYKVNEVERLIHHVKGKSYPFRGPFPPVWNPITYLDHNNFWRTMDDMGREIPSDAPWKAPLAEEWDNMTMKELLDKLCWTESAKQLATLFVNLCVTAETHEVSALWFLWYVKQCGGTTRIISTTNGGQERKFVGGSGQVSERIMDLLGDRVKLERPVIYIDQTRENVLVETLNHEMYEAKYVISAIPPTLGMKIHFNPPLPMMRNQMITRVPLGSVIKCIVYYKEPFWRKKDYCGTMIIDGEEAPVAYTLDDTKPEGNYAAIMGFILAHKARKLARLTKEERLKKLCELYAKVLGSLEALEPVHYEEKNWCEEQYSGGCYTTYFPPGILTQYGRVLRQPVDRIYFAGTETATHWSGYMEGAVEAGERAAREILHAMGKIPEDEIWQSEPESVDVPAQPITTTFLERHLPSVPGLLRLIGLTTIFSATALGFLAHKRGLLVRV
Method: as §1, §2

[4] = target: T4, recombinant human DAO (diamine oxidase) (Homo sapiens, UniProt P19801); assay: Activity on recombinant human DAO, method similar to VAP-1 assay, 1 mM putrescine substrate; details: read-out: Inhibitory Activity (IC50, nM) DAO
T4 construct: purchased R&D systems
T4 sequence (P19801 20-751): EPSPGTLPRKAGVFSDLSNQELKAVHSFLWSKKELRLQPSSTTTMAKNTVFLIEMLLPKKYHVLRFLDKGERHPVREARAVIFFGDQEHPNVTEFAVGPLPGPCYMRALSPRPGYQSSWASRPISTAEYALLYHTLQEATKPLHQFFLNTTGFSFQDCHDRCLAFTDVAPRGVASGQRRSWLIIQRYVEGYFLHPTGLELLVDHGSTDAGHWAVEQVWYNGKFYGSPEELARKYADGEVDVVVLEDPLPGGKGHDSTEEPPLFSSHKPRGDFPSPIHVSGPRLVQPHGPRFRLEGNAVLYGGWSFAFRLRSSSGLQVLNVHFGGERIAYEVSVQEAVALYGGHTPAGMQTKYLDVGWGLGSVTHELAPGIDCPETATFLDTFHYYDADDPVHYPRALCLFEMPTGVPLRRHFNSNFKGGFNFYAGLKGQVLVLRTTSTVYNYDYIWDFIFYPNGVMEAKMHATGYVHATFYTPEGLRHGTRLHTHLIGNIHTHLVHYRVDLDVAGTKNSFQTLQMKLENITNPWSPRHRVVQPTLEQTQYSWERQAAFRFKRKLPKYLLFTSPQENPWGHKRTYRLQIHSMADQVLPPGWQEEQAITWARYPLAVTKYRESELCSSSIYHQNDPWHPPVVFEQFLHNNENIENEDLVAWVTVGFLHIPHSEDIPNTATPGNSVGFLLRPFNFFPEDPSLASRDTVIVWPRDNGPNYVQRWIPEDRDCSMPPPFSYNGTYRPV
Method: as §1, §2

Row | IC50 [1] | IC50 [2] | IC50 [3] | IC50 [4] | SMILES
1 | 7 nM | > 10000 nM | > 10000 nM | 37 nM | CN(C)Cc1ccccc1-c1ccn2c(=O)n(C/C(=C/F)CN)nc2c1 [Example 23, 2-[(2E)-2-(aminomethyl)-3-fluoroprop-2-en-1-yl]-7-2-[(dimethylamino)methyl]phenyl[1,2,4]triazolo[4,3-a]pyridin-3(2H)-one hydrochloride]
2 | 0.6 nM | > 100000 nM | > 10000 nM | 14 nM | NC/C(=C\F)Cn1nc2cc(-c3ccc(C(=O)N4CCOCC4)cc3)ccn2c1=O [Example 24, 2-[(2E)-2-(aminomethyl)-3-fluoroprop-2-en-1-yl]-7-[4-(morpholin-4-ylcarbonyl)phenyl][1,2,4]triazolo[4,3-a]pyridin-3(2H)-one hydrochloride]
3 | 0.2 nM | 18000 nM | 220 nM | 9.1 nM | NC/C(=C\F)Cn1nc2cc(-c3ccc(-c4ccon4)cc3)ccn2c1=O [Example 25, 2-[(2E)-2-(aminomethyl)-3-fluoroprop-2-en-1-yl]-7-[4-(1,2-oxazol-3-yl)phenyl][1,2,4]triazolo[4,3-a]pyridin-3(2H)-one hydrochloride]
4 | 0.2 nM | > 100000 nM | < 10 nM | 1.9 nM | NC/C(=C\F)Cn1nc2cc(-c3cccc(-c4cc[nH]n4)c3)ccn2c1=O [Example 26, 2-[(2E)-2-(aminomethyl)-3-fluoroprop-2-en-1-yl]-7-[3-(1H-pyrazol-3-yl)phenyl][1,2,4]triazolo[4,3-a]pyridin-3(2H)-one hydrochloride]
5 | 0.6 nM | 1450 nM | 67 nM | 1.8 nM | NC/C(=C\F)Cn1nc2cc(-c3ccc(-c4cnon4)cc3)ccn2c1=O [Example 27, 2-[(2E)-2-(aminomethyl)-3-fluoroprop-2-en-1-yl]-7-[4-(1,2,5-oxadiazol-3-yl)phenyl][1,2,4]triazolo[4,3-a]pyridin-3(2H)-one hydrochloride]
6 | 0.5 nM | > 100000 nM | 290 nM | 5 nM | NC/C(=C\F)Cn1nc2cc(-c3cccc(-c4noc(C5CC5)n4)c3)ccn2c1=O [Example 28, 2-[(2E)-2-(aminomethyl)-3-fluoroprop-2-en-1-yl]-7-[3-(5-cyclopropyl-1,2,4-oxadiazol-3-yl)phenyl][1,2,4]triazolo[4,3-a]pyridin-3(2H)-one hydrochloride]
7 | 0.4 nM | 44000 nM | 380 nM | 4 nM | NC/C(=C\F)Cn1nc2cc(-c3ccc(-c4noc(C5CC5)n4)cc3)ccn2c1=O [Example 29, 2-[(2E)-2-(aminomethyl)-3-fluoroprop-2-en-1-yl]-7-[4-(5-cyclopropyl-1,2,4-oxadiazol-3-yl)phenyl][1,2,4]triazolo[4,3-a]pyridin-3(2H)-one hydrochloride]
8 | 0.3 nM | 68000 nM | 8.4 nM | 1.1 nM | NC/C(=C\F)Cn1nc2cc(-c3ccc(C(F)(F)F)nc3)ccn2c1=O [Example 30, 2-[(2E)-2-(aminomethyl)-3-fluoroprop-2-en-1-yl]-7-[6-(trifluoromethyl)pyridin-3-yl][1,2,4]triazolo[4,3-a]pyridin-3(2H)-one hydrochloride]
9 | 0.3 nM | > 100000 nM | 61 nM | 5 nM | COc1ccc(-c2ccn3c(=O)n(C/C(=C/F)CN)nc3c2)cn1 [Example 31, 2-[(2E)-2-(aminomethyl)-3-fluoroprop-2-en-1-yl]-7-(6-methoxypyridin-3-yl)[1,2,4]triazolo[4,3-a]pyridin-3(2H)-one hydrochloride]
10 | 0.4 nM | > 100000 nM | 19 nM | 24 nM | CN(C)c1ccc(-c2ccn3c(=O)n(C/C(=C/F)CN)nc3c2)cn1 [Example 32, 2-[(2E)-2-(aminomethyl)-3-fluoroprop-2-en-1-yl]-7-[6-(dimethylamino)pyridin-3-yl][1,2,4]triazolo[4,3-a]pyridin-3(2H)-one hydrochloride]
11 | 2 nM | > 100000 nM | > 100000 nM | 1 nM | NC/C(=C\F)Cn1nc2cc(C3=CCNCC3)ccn2c1=O [Example 34, 2-[(2E)-2-(aminomethyl)-3-fluoroprop-2-en-1-yl]-7-(1,2,3,6-tetrahydropyridin-4-yl)[1,2,4]triazolo[4,3-a]pyridin-3(2H)-one dihydrochloride]
